Data from patent US20210069083A1, “METHOD FOR IMPROVING SKIN WHITENING POWER OF A SKIN WHITENING AGENT” (Symrise AG, priority 2013, published 2021).

System: B16V mouse melanoma cells
Test: Depigmentation effect on melanoma cell cultures (inhibition of pigmentation / melanin inhibition)
Type: cell-based
Details: for IC50: Mus musculus, B16V cells, 0.3 mM tyrosine and 10 nM α-MSH, 96 h incubation, absorption at 400 nm
Description: B16V mouse melanoma cells are disseminated in a 96-well micro-titre plate in a concentration of 7.5×10^3 cells/well. After cultivation for 24 h at 37° C. and 5% CO2 in RPMI medium, enriched with 10% foetal calf serum, various concentrations of the test substances and 0.3 mM tyrosine and 10 nM α-MSH (α-melanocyte stimulating hormone) are added and incubated for a further 96 h. The maximum concentration of the test substances used corresponds to 0.1 times the value of the IC20 value of the cytotoxicity assay. Only tyrosine and α-MSH are added to the controls. After incubation, sodium hydroxide solution (final concentrations: 1 M) is added to the culture medium and the absorption (A) is measured after 3 h at 400 nm.
The inhibition of pigmentation in the presence of the test compounds was calculated using the following equation:
Inhibition of pigmentation (%)=100−[(Atest compound/Acontrol)×100]
wherein Atest compound=absorption of the wells with test substance and with cells Acontrol=absorption of the wells without test substance, but with cells
From the inhibition of pigmentation (%) in a series of dilutions of test compounds, the IC50 for each test compound is calculated. This is the concentration of a test compound at which pigmentation is inhibited by 50%. The results are compiled in Table 1:
Experimental procedure as described in Example 1. SymWhite® 377 stands for Phenylethyl resorcinol.
The Synergy Index (SI)^1 is calculated according to Kull's equation as follows: […]
with A: individual result of substance A B: individual result of substance B C: result of the mixture of A and B D: percentage of substance Ain the mixture E: percentage of substance B in the mixture ^1 The calculation of the synergy index (SI-value) was carried out on the basis of following literature: D. C. Steinberg, Cosmetics & Toiletries 2000, 115 (11), 59-62 and F. C. Kull et al., Applied Microbiology 1961, 9, 538-541.
In contrast to the given examples in the literature, in which reduced values for A, B and C (i.e. the minimal concentration of inhibition in antimicrobial tests) mean better activity and consequently SI values <1 document a synergistic effect, increasing values of the here analysed melanin inhibition mean better efficacy. According to Kull's equation the evidence for a synergistic effect results for SI values >1. In the experiments with Sclareolide and SyrnWhite® 377 the calculated SI values obviously exceed 1 (experiments 1 and 2). From this it follows that a composition of Sclareolide and SymWhite® 377 constitutes a potent synergistic combination of active ingredients.

| Structure (SMILES) | IC50 [µM] | Melanin inhibition (Ex. 1, Kull variable A, conc. 3.2 μm) [%] | Melanin inhibition (Ex. 2, Kull variable A, conc. 3.2 μm) [%] | Melanin inhibition (Ex. 1, Kull variable B, conc. 1.6 μm) [%] | Melanin inhibition (Ex. 2, Kull variable B, conc. 1.6 μm) [%] |
| --- | --- | --- | --- | --- | --- |
| O=c1cc(CO)occ1O [Kojic acid, 5-hydroxy-2-hydroxymethyl-4-pyranone] | 452 | – | – | – | – |
| CC1(C)CCC[C@]2(C)C3CC(=O)O[C@]3(C)CC[C@@H]12 (stereo partly drawn) [Sclareolide, (3aR,5aS,9aS,9bR)-decahydro-3a,6,6,9a-tetramethyl-naphtha[2,1-b]furan-2(1H)-one] | 10.2 | 50.0 | 35.8 | – | – |
| CC(c1ccccc1)c1ccc(O)cc1O (stereo not shown) [SymWhite ® 377, 4-(1-phenylethyl)1,3-dihydroxybenzene] | – | – | – | 59.8 | 55.9 |
| OC[C@H]1O[C@@H](Oc2ccc(O)cc2)[C@H](O)[C@@H](O)[C@@H]1O [beta-Arbutin] | 67 | – | – | – | – |
